In US4281012A, “[4H]-1,3-Benzodioxin-2-carboxylic acids” (Roussel Uclaf, priority 1978, dated 1981):

Columns and labels:
[1] = test system: male rats of the Sprague Dawley S.P.F. strain; assay: Hypolipemiant activity in rats on sucrose- and cholesterol-rich regime, % variation of levels versus untreated controls; assay type: in vivo, rat (Sprague Dawley S.P.F.); details: 10 days, esophagus tube, vs untreated controls
Experimental: This test was effected on groups of 8 male rats of the Sprague Dawley S.P.F. strain weighing about 200 g and the animals received a regime containing 50% of saccharose and which was rich in cholesterol (1%). The rats were treated over 10 days with the test products which were administered through an esophagus tube as a suspension in water containing carboxymethylcellulose. The animals were left without food 16 hours after the last administration of the test product and then killed by an abdominal puncture and from the blood sample with sodium heparinate, the levels of triglycerides, cholesterol and total lipids were determined by the following methods.
The triglyceride level was determined by the semiautomatic technique of Kessler et al [Automation in Analytical Chemistry, 1965, p. 341] modified by Claude et al [Ann. Biol. Clin., Vol. 26 3-4 (1968), p. 451]. The cholesterol levels were determined by the technique of Levine [Symposium Technicon, Vol. I, (1967), p. 25] adapted to auto-analyzer system I. The nephelometric level of total lipids was determined semi-automatically by the method of Girard et al. [Symposium Technicon, 1970]. The variations expressed in percentages of the level of triglycerides, cholesterol and total lipids after administration of the various dosage of the test products in the treated animals as compared to the untreated controls and the results are reported in Table I.

[2] = Acute toxicity in mice, DL50 dose; details: mouse, in vivo, ip, intraperitoneal, suspension in aqueous carboxymethylcellulose, observed one week
Experimental: The acute toxicity was determined on groups of 5 mice weighing about 18 to 22 g and the test products were intraperitoneally administered in suspension in an aqueous carboxymethylcellulose.

Row | Compound | % Variation of levels, Cholesterol ([1]; 5 mg/kg day) | % Variation of levels, Total Lipids ([1]; 5 mg/kg day) | % Variation of levels, Triglycerides ([1]; 5 mg/kg day) | LD50 at 168 h [2] | % Variation of levels, Cholesterol ([1]; 50 mg/kg day) | % Variation of levels, Total Lipids ([1]; 50 mg/kg day) | % Variation of levels, Triglycerides ([1]; 50 mg/kg day) | % Variation of levels, Cholesterol ([1]; 2 mg/kg day) | % Variation of levels, Total Lipids ([1]; 2 mg/kg day) | % Variation of levels, Triglycerides ([1]; 2 mg/kg day)
1 | C=CC1(c2ccccc2)OC(C(=O)OC)Oc2ccc(Cl)cc21 (single isomer, unassigned) [Example 22, methyl 6-chloro-4-phenyl-4-ethenyl-[4H]-1,3-benzodioxin-2-carboxylate] | -35% | -34% | -79% | ~700 mg/kg | – | – | – | – | – | –
2 | CC1(C)OC(C(=O)O)Oc2ccc(Cl)cc21 (stereo not drawn) [Example 2, 6-chloro-4,4-dimethyl-[4H]-1,3-benzodioxin-2-carboxylic acid] | – | – | – | 450 mg/kg | -23% | -28% | -11% | – | – | –
3 | CCC1(CC)OC(C(=O)O)Oc2ccc(Cl)cc21 (stereo not drawn) [Example 1, 6-chloro-4,4-diethyl-[4H]-1,3-benzodioxin-2-carboxylic acid] | – | – | – | 200 mg/kg | -37% | -39% | -11% | – | – | –
4 | COC(=O)C1Oc2ccc(Cl)cc2C(Cc2ccccc2)(c2ccccc2)O1 (single isomer, unassigned) [Example 32, methyl 6-chloro-4-phenyl-4-benzyl-[4H]-1,3-benzodioxin-2-carboxylate] | -45% | -41% | -11% | > 1000 mg/kg | – | – | – | – | – | –
5 | COC(=O)C1Oc2ccc(Cl)cc2C(C)(c2cccc(C(F)(F)F)c2)O1 (stereo not drawn) [Example 18] | -41% | -51% | -47% | > 1000 mg/kg | – | – | – | -30% | -29% | -15%
6 | COC(=O)C1Oc2ccc(OC)cc2C(C)(c2ccccc2)O1 (single isomer, unassigned) [Example 30, methyl 6-methoxy-4-methyl-4-phenyl-[4H]-1,3-benzodioxin-2-carboxylate] | -43% | -41% | -33% | > 1000 mg/kg | – | – | – | – | – | –
